From US20100041089A1, “IMPROVED METHOD FOR DETECTING CHEMICAL […]” (priority 2006, published 2010)

Tested on: yeast genes (expressed mRNA)
Assay: DNA chip measurement of expressed mRNA of yeast genes after culture with a toxic chemical substance
Type: cell-based, Saccharomyces cerevisiae S288C
Summary of the method: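 Fluorescence ratio, treated over untreated, read by chip scanner; ratio of two or more counted significant. Cells: S288C yeast, YPD, 25° C, chemical added at log phase for 2 h at growth-inhibiting, sublethal level. Cy3/Cy5-labeled cDNA from oligo-dT-purified mRNA.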

Structure (SMILES): N#Cc1c(Cl)c(Cl)c(Cl)c(C#N)c1Cl [(9), 2,4,5,6-Tetrachloro-1,3-benzenedicarbonitrile]
- The level of expressed mRNA in the presence of chemical substance/The level of expressed mRNA in the absence of chemical substance (yeast gene YFL010C, cultured two hours with substance): 3.1
- The level of expressed mRNA in the presence of chemical substance/The level of expressed mRNA in the absence of chemical substance (yeast gene YFL014W, DNA repair protein genes, cultured two hours with substance): 13.1
- The level of expressed mRNA in the presence of chemical substance/The level of expressed mRNA in the absence of chemical substance (yeast gene YFL024C, cultured two hours with substance): 0.5
- The level of expressed mRNA in the presence of chemical substance/The level of expressed mRNA in the absence of chemical substance (yeast gene YFL030W, metabolism protein genes): 24.5
- The level of expressed mRNA in the presence of chemical substance/The level of expressed mRNA in the absence of chemical substance (yeast gene YFL032W, cultured two hours with substance): 0.5
- The level of expressed mRNA in the presence of chemical substance/The level of expressed mRNA in the absence of chemical substance (yeast gene YFL056C): 162.3
- The level of expressed mRNA in the presence of chemical substance/The level of expressed mRNA in the absence of chemical substance (yeast gene YFL056C, cultured for two hours with substance): 162.3
- The level of expressed mRNA in the presence of chemical substance/The level of expressed mRNA in the absence of chemical substance (yeast gene YFL057C): 51.8
- The level of expressed mRNA in the presence of chemical substance/The level of expressed mRNA in the absence of chemical substance (yeast gene YFL057C, cultured for two hours with substance): 51.8
- The level of expressed mRNA in the presence of chemical substance/The level of expressed mRNA in the absence of chemical substance (yeast gene YFR020W, cultured two hours with substance): 3.7
- The level of expressed mRNA in the presence of chemical substance/The level of expressed mRNA in the absence of chemical substance (yeast gene YFR030W): 24.1
- The level of expressed mRNA in the presence of chemical substance/The level of expressed mRNA in the absence of chemical substance (yeast gene YFR042W, cultured two hours with substance): 2.8
- The level of expressed mRNA in the presence of chemical substance/The level of expressed mRNA in the absence of chemical substance (yeast gene YGL037C, cultured two hours with substance): 2.1
- The level of expressed mRNA in the presence of chemical substance/The level of expressed mRNA in the absence of chemical substance (yeast gene YGL047W, cultured two hours with substance): 4.5
- The level of expressed mRNA in the presence of chemical substance/The level of expressed mRNA in the absence of chemical substance (yeast gene YGL053W, cultured two hours with substance): 3.3
- The level of expressed mRNA in the presence of chemical substance/The level of expressed mRNA in the absence of chemical substance (yeast gene YGL091C, DNA repair protein genes, cultured two hours with substance): 10.8
- The level of expressed mRNA in the presence of chemical substance/The level of expressed mRNA in the absence of chemical substance (yeast gene YGL098W, cultured two hours with substance): 1.2
- The level of expressed mRNA in the presence of chemical substance/The level of expressed mRNA in the absence of chemical substance (yeast gene YGL104C): 4.6
- The level of expressed mRNA in the presence of chemical substance/The level of expressed mRNA in the absence of chemical substance (yeast gene YGL121C, cultured two hours with substance): 7.0
- The level of expressed mRNA in the presence of chemical substance/The level of expressed mRNA in the absence of chemical substance (yeast gene YGL136C, cultured two hours with substance): 1.3
- The level of expressed mRNA in the presence of chemical substance/The level of expressed mRNA in the absence of chemical substance (yeast gene YGL227W, cultured two hours with substance): 2.4
- The level of expressed mRNA in the presence of chemical substance/The level of expressed mRNA in the absence of chemical substance (yeast gene YGR010W, cultured two hours with substance): 13.6
- The level of expressed mRNA in the presence of chemical substance/The level of expressed mRNA in the absence of chemical substance (yeast gene YGR043C): 10.9
- The level of expressed mRNA in the presence of chemical substance/The level of expressed mRNA in the absence of chemical substance (yeast gene YGR043C, cultured for two hours with substance): 10.9
- The level of expressed mRNA in the presence of chemical substance/The level of expressed mRNA in the absence of chemical substance (yeast gene YGR101W, cultured two hours with substance): 4.0
- The level of expressed mRNA in the presence of chemical substance/The level of expressed mRNA in the absence of chemical substance (yeast gene YGR110W, cultured two hours with substance): 6.4
- The level of expressed mRNA in the presence of chemical substance/The level of expressed mRNA in the absence of chemical substance (yeast gene YGR130C, cultured two hours with substance): 2.0
- The level of expressed mRNA in the presence of chemical substance/The level of expressed mRNA in the absence of chemical substance (yeast gene YGR134W, cultured two hours with substance): 2.4
- The level of expressed mRNA in the presence of chemical substance/The level of expressed mRNA in the absence of chemical substance (yeast gene YGR142W, cultured two hours with substance): 36.8
- The level of expressed mRNA in the presence of chemical substance/The level of expressed mRNA in the absence of chemical substance (yeast gene YGR146C, cultured two hours with substance): 0.8
- The level of expressed mRNA in the presence of chemical substance/The level of expressed mRNA in the absence of chemical substance (yeast gene YGR154C, cultured two hours with substance): 25.2
- The level of expressed mRNA in the presence of chemical substance/The level of expressed mRNA in the absence of chemical substance (yeast gene YGR197C (transport facilitation protein gene)): 16.7
- The level of expressed mRNA in the presence of chemical substance/The level of expressed mRNA in the absence of chemical substance (yeast gene YGR284C, cultured two hours with substance): 4.3
- The level of expressed mRNA in the presence of chemical substance/The level of expressed mRNA in the absence of chemical substance (yeast gene YHR016C, cultured two hours with substance): 2.8
- The level of expressed mRNA in the presence of chemical substance/The level of expressed mRNA in the absence of chemical substance (yeast gene YHR029C, cultured two hours with substance): 13.6
- The level of expressed mRNA in the presence of chemical substance/The level of expressed mRNA in the absence of chemical substance (yeast gene YHR138C, cultured two hours with substance): 5.3
- The level of expressed mRNA in the presence of chemical substance/The level of expressed mRNA in the absence of chemical substance (yeast gene YHR199C, cultured two hours with substance): 8.6
- The level of expressed mRNA in the presence of chemical substance/The level of expressed mRNA in the absence of chemical substance (yeast gene YHR209W, cultured two hours with substance): 2.9
- The level of expressed mRNA in the presence of chemical substance/The level of expressed mRNA in the absence of chemical substance (yeast gene YIL023C, cultured two hours with substance): 3.5
- The level of expressed mRNA in the presence of chemical substance/The level of expressed mRNA in the absence of chemical substance (yeast gene YIL024C, cultured two hours with substance): 2.2
- The level of expressed mRNA in the presence of chemical substance/The level of expressed mRNA in the absence of chemical substance (yeast gene YIL041W, cultured two hours with substance): 1.8
- The level of expressed mRNA in the presence of chemical substance/The level of expressed mRNA in the absence of chemical substance (yeast gene YIL087C, cultured two hours with substance): 2.4
- The level of expressed mRNA in the presence of chemical substance/The level of expressed mRNA in the absence of chemical substance (yeast gene YIL097W, cultured two hours with substance): 4.9
- The level of expressed mRNA in the presence of chemical substance/The level of expressed mRNA in the absence of chemical substance (yeast gene YIL117C, cultured two hours with substance): 2.3
- The level of expressed mRNA in the presence of chemical substance/The level of expressed mRNA in the absence of chemical substance (yeast gene YIL143C, DNA repair protein genes, cultured two hours with substance): 7.1
- The level of expressed mRNA in the presence of chemical substance/The level of expressed mRNA in the absence of chemical substance (yeast gene YIL153W, DNA repair protein genes, cultured two hours with substance): 4.3
- The level of expressed mRNA in the presence of chemical substance/The level of expressed mRNA in the absence of chemical substance (yeast gene YJL020C, cultured two hours with substance): 1.3
- The level of expressed mRNA in the presence of chemical substance/The level of expressed mRNA in the absence of chemical substance (yeast gene YJL057C, cultured two hours with substance): 7.3
- The level of expressed mRNA in the presence of chemical substance/The level of expressed mRNA in the absence of chemical substance (yeast gene YJL066C, cultured two hours with substance): 2.0
- The level of expressed mRNA in the presence of chemical substance/The level of expressed mRNA in the absence of chemical substance (yeast gene YJL082W, cultured two hours with substance): 1.4
